Patent EP1769804B1, “hPTH(1-34) for use in preventing or reducing the incidence or severity of vertebral and / or non vertebral fracture in a male human” (priority 1998, dated 2012)
Marks after values point to notes of the source that are not given here.

Tests used:
[1] = system: cortical bone of the humerus; assay: Histomorphometry and polarized Fourier transform infrared microscopy of humerus cortical bone; assay type: in vivo, Macaca fascicularis
Method: For certain experimental subjects, cortical bone of the humerus was examined by histomorphometry and by polarized Fourier transform infrared microscopy. The Fourier transform infrared microscopy was conducted by an adaptation of known methods for such microscopy.

Ovariectomized Primates [2] = assay: Biomechanical material properties of beam specimens from femur diaphysis; assay type: in vivo, Macaca fascicularis; details: for E (Young's modulus) / u (toughness) / εa / σa: femur diaphysis beam, mean ± SEM
Source text: (§1) Biomechanical tests were done on lumbar vertebrae L-3 to L-4, the femur neck, humerus midshaft, and on a cortical bone specimen machined from the femur diaphysis (measures defined in Table 2). Conventional static and dynamic histomorphometry were done (measures described in Table 6) on the humerus midshaft, lumbar vertebra L-2, femoral neck, femur midshaft, the radius midshaft and distal radius. Initial statistical analyses compared all groups to vehicle-treated ovariectomized controls. The data is suitable for additional exploratory analyses to examine dose dependency, effects of withdrawal, interactions between outcomes, and changes in time by methods known to those of skill in the art. All assays were conducted and determined by methods known in the art.

post-menopausal women [3] = assay: Clinical trial: BMC, BMD and bone area by dual energy absorptiometry (DEXA); assay type: in vivo, Humans
Method: The effect of PTH on bone mineral content (BMC), bone mineral density (BMD), and bone area were determined by dual energy absorptiometry (DEXA), and the results are reported in Tables 12-14. PTH administration caused apparent increases in BMC at the patient's lumbar spine, femur and hip, wrist, and throughout the patient's whole body (Table 12). Treatment with PTH caused significant increases in the patient's BMD at the lumbar spine, femur and hip (Table 13). The increases at the lumbar spine, femur and hip were statistically significant with p<0.001 (Table 13). […] The increases were statistically significant for the lumbar spine and hip neck (Table 14).

[4] = system: ovariectomized cynomolgus primates; assay: Iliac biopsy histomorphometry (cancellous bone); assay type: in vivo, Macaca fascicularis
Source text: All animals were euthanized after 18 months.

post-menopausal women [5] = assay: Clinical trial: number of non-vertebral fractures; assay type: in vivo, Humans
Ovariectomized Primates [6] = assay: Biomechanical measures of cortical bone of the humerus midshaft; assay type: in vivo, Macaca fascicularis; details: for Fy / S (stiffness) / t (average cortical thickness): humerus midshaft, mean ± SEM
Source text: as §1

[7] = compared to ovariectomized controls
[8] = PTH1-W: withdrawal after 1 µg/kg for 12 months
[9] = PTH5-W: withdrawal after 5 µg/kg for 12 months

teriparatide [rhPTH(1-34)]
bone quality (crystallites) [1]: improved bone quality by replacing old bone (large crystallites) with young bone
material properties of beam specimens machined from the femoral diaphysis (Ovariectomized Primates [2]; [7]): did not alter
E (Young's modulus) (Ovariectomized Primates [2]; [8]): 16.6 ± 0.6 Gpa
u (toughness) (Ovariectomized Primates [2]; [8]): 5.3 ± 0.4 mJ/m^3
εa (Ovariectomized Primates [2]; [8]): 0.034 ± 0.002
σa (Ovariectomized Primates [2]; [8]): 214 ± 6 Mpa
E (Young's modulus) (Ovariectomized Primates [2]; PTH1: 1 µg/kg for 18 months): 17.1 ± 0.4 Gpa
u (toughness) (Ovariectomized Primates [2]; PTH1: 1 µg/kg for 18 months): 6.1 ± 0.4 mJ/m^3
εa (Ovariectomized Primates [2]; PTH1: 1 µg/kg for 18 months): 0.036 ± 0.002
σa (Ovariectomized Primates [2]; PTH1: 1 µg/kg for 18 months): 222 ± 4 Mpa
E (Young's modulus) (Ovariectomized Primates [2]; [9]): 15.3 ± 0.6^a Gpa
u (toughness) (Ovariectomized Primates [2]; [9]): 6.1 ± 0.4 mJ/m^3
εa (Ovariectomized Primates [2]; [9]): 0.038 ± 0.002
σa (Ovariectomized Primates [2]; [9]): 208 ± 6 Mpa
E (Young's modulus) (Ovariectomized Primates [2]; PTH5: 5 µg/kg for 18 months): 15.4 ± 0.6^a Gpa
u (toughness) (Ovariectomized Primates [2]; PTH5: 5 µg/kg for 18 months): 5.4 ± 0.4 mJ/m^3
εa (Ovariectomized Primates [2]; PTH5: 5 µg/kg for 18 months): 0.034 ± 0.002
σa (Ovariectomized Primates [2]; PTH5: 5 µg/kg for 18 months): 206 ± 6 Mpa
bone area, endpoint % change (SD) from baseline, Femur/Hip Intertrochanter (post-menopausal women [3]; PTH-20): 1.01 (4.99) %
bone area, endpoint % change (SD) from baseline, Femur/Hip Neck (post-menopausal women [3]; PTH-20): 0.27 (4.91) %
bone area, endpoint % change (SD) from baseline, Femur/Hip Total (post-menopausal women [3]; PTH-20): 0.84 (3.16) %
bone area, endpoint % change (SD) from baseline, Femur/Hip Trochanter (post-menopausal women [3]; PTH-20): 1.99 (12.16) %
bone area, endpoint % change (SD) from baseline, Femur/Hip Ward's triangle (post-menopausal women [3]; PTH-20): 1.13 (7.34) %
bone area, endpoint % change (SD) from baseline, Lumbar spine (post-menopausal women [3]; PTH-20): 2.52 (3.52) %
bone area, endpoint % change (SD) from baseline, Wrist 1/3 radius (post-menopausal women [3]; PTH-20): 0.52 (3.40) %
bone area, endpoint % change (SD) from baseline, Wrist Ultradistal (post-menopausal women [3]; PTH-20): -0.25 (6.00) %
bone mineral content, endpoint % change (SD) from baseline, Femur/Hip Intertrochanter (post-menopausal women [3]; PTH-20): 3.59 (7.32) %
bone mineral content, endpoint % change (SD) from baseline, Femur/Hip Neck (post-menopausal women [3]; PTH-20): 2.99 (7.26) %
bone mineral content, endpoint % change (SD) from baseline, Femur/Hip Total (post-menopausal women [3]; PTH-20): 3.50 (6.26) %
bone mineral content, endpoint % change (SD) from baseline, Femur/Hip Trochanter (post-menopausal women [3]; PTH-20): 5.68 (15.58) %
bone mineral content, endpoint % change (SD) from baseline, Femur/Hip Ward's triangle (post-menopausal women [3]; PTH-20): 5.36 (14.78) %
bone mineral content, endpoint % change (SD) from baseline, Lumbar spine (post-menopausal women [3]; PTH-20): 11.85 (8.83) %
bone mineral content, endpoint % change (SD) from baseline, Whole body (post-menopausal women [3]; PTH-20): 1.30 (4.48) %
bone mineral content, endpoint % change (SD) from baseline, Wrist 1/3 radius (post-menopausal women [3]; PTH-20): -1.37 (4.51) %
bone mineral content, endpoint % change (SD) from baseline, Wrist Ultradistal (post-menopausal women [3]; PTH-20): -0.25 (6.53) %
bone mineral density, endpoint % change (SD) from baseline, Femur/Hip Intertrochanter (post-menopausal women [3]; PTH-20): 2.62 (5.52) %
bone mineral density, endpoint % change (SD) from baseline, Femur/Hip Neck (post-menopausal women [3]; PTH-20): 2.79 (5.72) %
bone mineral density, endpoint % change (SD) from baseline, Femur/Hip Total (post-menopausal women [3]; PTH-20): 2.58 (4.88) %
bone mineral density, endpoint % change (SD) from baseline, Femur/Hip Trochanter (post-menopausal women [3]; PTH-20): 3.50 (6.81) %
bone mineral density, endpoint % change (SD) from baseline, Femur/Hip Ward's triangle (post-menopausal women [3]; PTH-20): 4.19 (11.93) %
bone mineral density, endpoint % change (SD) from baseline, Lumbar spine (post-menopausal women [3]; PTH-20): 9.70 (7.41) %
bone mineral density, endpoint % change (SD) from baseline, Wrist 1/3 radius (post-menopausal women [3]; PTH-20): -1.94 (4.07) %
bone mineral density, endpoint % change (SD) from baseline, Wrist Ultradistal (post-menopausal women [3]; PTH-20): -0.05 (7.14) %
bone area, endpoint % change (SD) from baseline, Femur/Hip Intertrochanter (post-menopausal women [3]; PTH-40): 1.01 (4.89) %
bone area, endpoint % change (SD) from baseline, Femur/Hip Neck (post-menopausal women [3]; PTH-40): 0.81 (5.56) %
bone area, endpoint % change (SD) from baseline, Femur/Hip Total (post-menopausal women [3]; PTH-40): 1.05 (2.98) %
bone area, endpoint % change (SD) from baseline, Femur/Hip Trochanter (post-menopausal women [3]; PTH-40): 1.92 (11.30) %
bone area, endpoint % change (SD) from baseline, Femur/Hip Ward's triangle (post-menopausal women [3]; PTH-40): 0.99 (8.06) %
bone area, endpoint % change (SD) from baseline, Lumbar spine (post-menopausal women [3]; PTH-40): 3.34 (3.72) %
bone area, endpoint % change (SD) from baseline, Wrist 1/3 radius (post-menopausal women [3]; PTH-40): 0.01 (4.42) %
bone area, endpoint % change (SD) from baseline, Wrist Ultradistal (post-menopausal women [3]; PTH-40): -0.39 (4.80) %
bone mineral content, endpoint % change (SD) from baseline, Femur/Hip Intertrochanter (post-menopausal women [3]; PTH-40): 4.99 (7.79) %
bone mineral content, endpoint % change (SD) from baseline, Femur/Hip Neck (post-menopausal women [3]; PTH-40): 5.80 (8.71) %
bone mineral content, endpoint % change (SD) from baseline, Femur/Hip Total (post-menopausal women [3]; PTH-40): 4.78 (6.70) %
bone mineral content, endpoint % change (SD) from baseline, Femur/Hip Trochanter (post-menopausal women [3]; PTH-40): 6.53 (15.33) %
bone mineral content, endpoint % change (SD) from baseline, Femur/Hip Ward's triangle (post-menopausal women [3]; PTH-40): 8.86 (17.02) %
bone mineral content, endpoint % change (SD) from baseline, Lumbar spine (post-menopausal women [3]; PTH-40): 16.62 (11.1) %
bone mineral content, endpoint % change (SD) from baseline, Whole body (post-menopausal women [3]; PTH-40): 2.28 (5.44) %
bone mineral content, endpoint % change (SD) from baseline, Wrist 1/3 radius (post-menopausal women [3]; PTH-40): -3.04 (6.09) %
bone mineral content, endpoint % change (SD) from baseline, Wrist Ultradistal (post-menopausal women [3]; PTH-40): -1.88 (7.97) %
bone mineral density, endpoint % change (SD) from baseline, Femur/Hip Intertrochanter (post-menopausal women [3]; PTH-40): 3.98 (5.96) %
bone mineral density, endpoint % change (SD) from baseline, Femur/Hip Neck (post-menopausal women [3]; PTH-40): 5.06 (6.73) %
bone mineral density, endpoint % change (SD) from baseline, Femur/Hip Total (post-menopausal women [3]; PTH-40): 3.60 (5.42) %
bone mineral density, endpoint % change (SD) from baseline, Femur/Hip Trochanter (post-menopausal women [3]; PTH-40): 4.40 (7.45) %
bone mineral density, endpoint % change (SD) from baseline, Femur/Hip Ward's triangle (post-menopausal women [3]; PTH-40): 7.85 (13.24) %
bone mineral density, endpoint % change (SD) from baseline, Lumbar spine (post-menopausal women [3]; PTH-40): 13.7 (9.69) %
bone mineral density, endpoint % change (SD) from baseline, Wrist 1/3 radius (post-menopausal women [3]; PTH-40): -3.17 (4.62) %
bone mineral density, endpoint % change (SD) from baseline, Wrist Ultradistal (post-menopausal women [3]; PTH-40): -1.76 (7.20) %
mineralization, activation frequency, or remodeling periods ([4]; iliac biopsy): did not affect
cancellous bone area ([4]; iliac biopsy at 15 months, compared to ovariectomized): increased cancellous bone area
number of non-vertebral fractures, Ankle (post-menopausal women [5]; PTH-20 (N=541)): 2
number of non-vertebral fractures, Foot (post-menopausal women [5]; PTH-20 (N=541)): 1
number of non-vertebral fractures, Hip (post-menopausal women [5]; PTH-20 (N=541)): 2
number of non-vertebral fractures, Humerus (post-menopausal women [5]; PTH-20 (N=541)): 4
number of non-vertebral fractures, Other (post-menopausal women [5]; PTH-20 (N=541)): 14
number of non-vertebral fractures, Pelvis (post-menopausal women [5]; PTH-20 (N=541)): 1
number of non-vertebral fractures, Radius (post-menopausal women [5]; PTH-20 (N=541)): 7
number of non-vertebral fractures, Ribs (post-menopausal women [5]; PTH-20 (N=541)): 5
number of non-vertebral fractures, Total (post-menopausal women [5]; PTH-20 (N=541)): 34
number of non-vertebral fractures, Total w/o "Other" (post-menopausal women [5]; PTH-20 (N=541)): 21
number of non-vertebral fractures, Ankle (post-menopausal women [5]; PTH-40 (N=552)): 2
number of non-vertebral fractures, Foot (post-menopausal women [5]; PTH-40 (N=552)): 4
number of non-vertebral fractures, Hip (post-menopausal women [5]; PTH-40 (N=552)): 3
number of non-vertebral fractures, Humerus (post-menopausal women [5]; PTH-40 (N=552)): 3
number of non-vertebral fractures, Other (post-menopausal women [5]; PTH-40 (N=552)): 9
number of non-vertebral fractures, Pelvis (post-menopausal women [5]; PTH-40 (N=552)): 0
number of non-vertebral fractures, Radius (post-menopausal women [5]; PTH-40 (N=552)): 10
number of non-vertebral fractures, Ribs (post-menopausal women [5]; PTH-40 (N=552)): 5
number of non-vertebral fractures, Total (post-menopausal women [5]; PTH-40 (N=552)): 32
number of non-vertebral fractures, Total w/o "Other" (post-menopausal women [5]; PTH-40 (N=552)): 24
measures in the cortical diaphysis of the humerus midshaft (Ovariectomized Primates [6]; [7]): did not alter
Fy (Ovariectomized Primates [6]; [8]): 689 ± 23 N
S (stiffness) (Ovariectomized Primates [6]; [8]): 573 ± 20 N/mm
t (average cortical thickness) (Ovariectomized Primates [6]; [8]): 1.66 ± 0.04 mm
Fy (Ovariectomized Primates [6]; PTH1: 1 µg/kg for 18 months): 654 ± 23 N
S (stiffness) (Ovariectomized Primates [6]; PTH1: 1 µg/kg for 18 months): 544 ± 23 N/mm
t (average cortical thickness) (Ovariectomized Primates [6]; PTH1: 1 µg/kg for 18 months): 1.68 ± 0.03 mm
Fy (Ovariectomized Primates [6]; [9]): 707 ± 24 N
S (stiffness) (Ovariectomized Primates [6]; [9]): 573 ± 24 N/mm
t (average cortical thickness) (Ovariectomized Primates [6]; [9]): 1.72 ± 0.05 mm
Fy (Ovariectomized Primates [6]; PTH5: 5 µg/kg for 18 months): 680 ± 15^a N
S (stiffness) (Ovariectomized Primates [6]; PTH5: 5 µg/kg for 18 months): 548 ± 18 N/mm
t (average cortical thickness) (Ovariectomized Primates [6]; PTH5: 5 µg/kg for 18 months): 1.80 ± 0.04^a mm
